Values of other authors as cited in patent US9114169B2, “Sweetening and healthy compositions and methods associated therewith” (priority 2013, dated 2015).

What was measured:
[1] = compared with resveratrol
[2] = fold longer than resveratrol
[3] = fold greater than resveratrol
[4] = compared with resveratrol; remark: listed apart in the source

- absorption relative to resveratrol [1]: greater absorption
- half-life in the human body relative to resveratrol [2]: seven
- cellular uptake relative to resveratrol [3]: 2-4 times
- metabolic stability relative to resveratrol [4]: greater
SMILES: COc1cc(/C=C/c2ccc(O)cc2)cc(OC)c1 [Pterostilbene, pterostilbene]
